The values below come from patent US20020132817A1, “Heterocyclic compounds, their production and use” (priority 1998, published 2002).

One data set has as its target T1, substance P receptor (Homo sapiens, UniProt P25103).
T1 construct: The receptor was prepared from human lymphoblast cells (IM-9); endogenous in cells; host or cells: IM-9 human lymphoblast cells (membrane preparation)
The experiment in a line: Radioligand receptor binding inhibitory activity using receptor from human lymphoblast cells (IM-9). The settings on record: 125I-BHSP radioligand, receptor from IM-9 cells, 25° C. for 30 minutes. As for the experimental part: Radioligand receptor binding inhibitory activity Binding inhibitory activity using receptor from human lymphoblast cells (IM-9)
The receptor was prepared from human lymphoblast cells (IM-9). IM-9 cells (2×10^5 cells/ml) were inoculated and incubated for 3 days (one liter), which was then subjected to centrifuge for 5 minutes at 500×g to obtain cell pellets. […] The residue was washed twice with 30 ml of the above-mentioned buffer, which was then preserved frozen (−80° C.) as a specimen of the receptor.
The specimen was suspended in a reaction buffer (50 mM Tri-HCl buffer (pH 7.4), 0.02% bovine serum albumin, 1 mM phenylmethylsulfonyl fluoride, […], […] bacitracin, 3 mM manganese chloride) and 100 ul portion was the suspension was used in the reaction. […] The amount of nonspecific binding was determined by adding substance P at a final concentration of 2×10^−6M. After the reaction, using a cell harvester (290 PHD, Cambridge Technology, Inc, U.S.A.), rapid filtration was carried out through a glass filter (GF/B, Whatman, U.S.A.) to stop the reaction. After washing three times with 250 ul of 50 mM of Tris-HCl buffer (pH 7.4) containing 0.02% bovine serum albumin, the radioactivity remaining on the filter was determined with a gamma counter. Before use, the filter was immersed in 0.1% polyethyleneimine for 24 hours and air-dried.

The test system of data set [1] is plasma extravasation induced by capsaicin in trachea of guinea pigs. The experiment in a line: Inhibitory effect on plasma extravasation induced by capsaicin in trachea of guinea pigs. Format: in vivo. The settings on record: Cavia porcellus, iv, 5 minutes before capsaicin, Evans' blue dye in trachea, read-out: ID50, μg/kg, i.v. As for the experimental part:
Guinea pigs (Hartley type white male guinea pige), (n=6) were anesthetized with 35 mg/kg of pentobarbital injected intraperitoneally (i.p.), then test compounds were administered intravenously (i.v.). After 5 minutes, a mixed solution of capsaicin ([…]) and Evans' blue dye (20 mg/kg) was administered intravenously to cause reaction. Ten minutes later, test animals were sacrificed by cutting the aorta, then perfused through pulmonary artery with 50 ml of physiological saline. The trachea was excised, and its wet weight was measure. The trachea was incubated at room temperature in 1 ml of acetone-0.3% sodium sulfate (7:3) overnight and Evans' blue dye was extracted from the trachea. The extract solution was centrifuged at 2800 rpm for 5 minutes. The amount of Evans' blue dye in the supernatant was quantified by measuring absorbance at […].
The reaction of accelerating the permeability of blood vessels is expressed in terms of the amount of Evans' blue (μg) per trachea unit weight (g) and the effect of drug was evaluated by calculating the degree of inhibition (% inhibition) according to the following equation: […]

T1 sequence (P25103 whole entry): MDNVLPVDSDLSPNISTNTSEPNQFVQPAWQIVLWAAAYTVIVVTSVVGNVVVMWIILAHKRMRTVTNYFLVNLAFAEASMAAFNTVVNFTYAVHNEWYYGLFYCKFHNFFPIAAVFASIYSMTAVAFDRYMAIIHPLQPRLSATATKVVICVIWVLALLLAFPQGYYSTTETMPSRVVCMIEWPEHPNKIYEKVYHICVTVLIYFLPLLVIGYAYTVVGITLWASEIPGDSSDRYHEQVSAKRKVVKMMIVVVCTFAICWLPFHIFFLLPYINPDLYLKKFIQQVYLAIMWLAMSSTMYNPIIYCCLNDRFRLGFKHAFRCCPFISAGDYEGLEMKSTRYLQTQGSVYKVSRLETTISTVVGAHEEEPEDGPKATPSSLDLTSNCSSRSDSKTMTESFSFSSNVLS

For `Cc1ccc(-c2c3n(c(=O)c4ncccc24)CC(O)CN(Cc2cc(C(F)(F)F)cc(C(F)(F)F)c2)C3=O)cc1` (racemic) [Reference Example 79, (+/−)-7-[3,5-Bis(trifluoromethyl)benzyl]-6,7,8,9,10,12-hexahydro-9-hydroxy-5-(4-methylphenyl)-6,12-dioxo[1,4]diazepino [2,1-g][1,7]naphthyridine], the melting point lay in the range of 282 to 283 °C. At substance P receptor, this compound had an IC50 of 0.1 nM.

`COc1cc(CN2C[C@H](C)CCn3c(c(-c4ccccc4)c4cccnc4c3=O)C2=O)cc(OC)c1` [Example 5, (9R)-7-(3,5-dimethoxybenzyl)-6,7,8,9,10,11-hexahydro-9-methyl-6,13-dioxo-5-phenyl-13H-[1,4]diazosino[2,1-g][1,7]napththylidine] showed a melting point of 199 to 201 °C. The IC50 at substance P receptor was found to be 0.48 nM.

As to `COc1cc(CN2C[C@H](C)CCn3c(c(-c4ccc(Cl)c(Cl)c4)c4cccnc4c3=O)C2=O)cc(OC)c1` [Example 8, (9R)-7-(3,5-dimethoxybenzyl)-5-(3,4-dichlorophenyl)-6,7,8,9,10,11-hexahydro-9-methyl-6,13-dioxo-13H-[1,4]diazosino[2,1-g][1,7]napththylidine], the melting point fell in the range of 207 to 208 °C. The IC50 on substance P receptor is 0.05 nM.

`Cc1ccc(-c2c3n(c(=O)c4ncccc24)CC[C@@H](C)CN(Cc2cc(C)cc(C)c2)C3=O)cc1` [Example 9, (9R)-7-(3,5-dimethylbenzyl)-6,7,8,9,10,11-hexahydro-9-methyl-5-(4-methylphenyl)-6,13-dioxo-13H-[1,4]diazosino[2,1-g][1,7]napththylidine] showed a melting point of 200 to 202 °C. On substance P receptor, this compound returned an IC50 of 0.86 nM.

On to `Cc1ccc(-c2c3n(c(=O)c4ncccc24)CC[C@@H](C)CN(Cc2cc(Cl)cc(Cl)c2)C3=O)cc1` [Example 10, (9R)-7-(3,5-dichlorobenzyl)-6,7,8,9,10,11-hexahydro-9-methyl-5-(4-methylphenyl)-6,13-dioxo-13H-[1,4]diazosino[2,1-g][1,7]napththylidine], for which the melting point is 139 to 141 °C. The compound also yielded an IC50 at substance P receptor of 1 nM.

In turn, `Cc1cc(C)cc(CN2C[C@H](C)CCn3c(c(-c4ccc(Cl)c(Cl)c4)c4cccnc4c3=O)C2=O)c1` [Example 11, (9R)-5-(3,4-dichlorophenyl)-7-(3,5-dimethylbenzyl)-6,7,8,9,10,11-hexahydro-9-methyl-6,13-dioxo-13H-[1,4]diazosino[2,1-g][1,7]napththylidine] showed a melting point of 137 to 139 °C. This compound also returned a half-maximal inhibitory concentration (IC50) on substance P receptor of 0.81 nM.

Consider `COc1cc(CN2C[C@H](C)CCn3c(c(-c4ccc(F)cc4)c4cccnc4c3=O)C2=O)cc(OC)c1` [Example 12, (9R)-7-(3,5-dimethoxybenzyl)-5-(4-fluorophenyl)-6,7,8,9,10,11-hexahydro-9-methyl-6,13-dioxo-13H-[1,4]diazosino[2,1-g][1,7]napththylidine], for which the melting point is 192 to 193 °C. The same compound gave an IC50 at substance P receptor of 1.5 nM.

Compound `COc1cc(CN2C[C@H](C)CCn3c(c(-c4ccc(Cl)cc4)c4cccnc4c3=O)C2=O)cc(OC)c1` [Example 13, (9R)-5-(4-chlorophenyl)-7-(3,5-dimethoxybenzyl)-6,7,8,9,10,11-hexahydro-9-methyl-6,13-dioxo-13H-[1,4]diazosino[2,1-g][1,7]napththylidine] displayed a melting point of 229 to 230 °C. Moreover, the IC50 at substance P receptor came to 1.1 nM.

In turn, `Cc1ccc(-c2c3n(c(=O)c4ncccc24)CCCCN(Cc2cc(C(F)(F)F)cc(C(F)(F)F)c2)C3=O)cc1` [Reference Example 57, 7-[3,5-Bis(trifluoromethyl)benzyl]-6,7,8,9,10,11-hexahydro-5-(4-methylphenyl)-6,13-dioxo-13H-[1,4]diazocino[2,1-g][1,7]naphthyridine] registered an IC50 at substance P receptor of 0.76 nM. Further, the ED50 in data set [1] is 4.2 µg/kg.

As to `Cc1ccc(-c2c3n(c(=O)c4ncccc24)CCCCCN(Cc2cc(C(F)(F)F)cc(C(F)(F)F)c2)C3=O)cc1` [Reference Example 60, 7-[3,5-Bis(trifluoromethyl)benzyl]-6,7,8,9,10,11,12,14-octahydro-5-(4-methylphenyl)-6,14-dioxo[1,4]diazonino[2,1-g][1,7]naphthyridine], the ED50 in data set [1] amounted to 11 µg/kg.

Take `O=C1c2c(-c3ccccc3)c3cccnc3c(=O)n2CCCN1Cc1cc(C(F)(F)F)cc(C(F)(F)F)c1` [Reference Example 61, 7-[3,5-Bis(trifluoromethyl)benzyl]-6,7,8,9,10,12-hexahydro-6,12-dioxo-5-phenyl[1,4]diazepino[2,1-g][1,7]naphthyridine]: the ED50 in data set [1] turned out to be 2.6 µg/kg.

`Cc1ccc(-c2c3n(c(=O)c4ncccc24)C[C@H](C)CN(Cc2cc(C(F)(F)F)cc(C(F)(F)F)c2)C3=O)cc1` [Reference Example 66, (9R)-7-[3,5-Bis(trifluoromethyl)benzyl]-6,7,8,9,10,12-hexahydro-9-methyl-5-(4-methylphenyl)-6,12-dioxo[1,4]diazepino[2,1-g][1,7]naphthyridine] displayed a melting point of 179 to 180 °C. In data set [1], the ED50 worked out at 41 µg/kg.

On to `Cc1ccc(-c2c3n(c(=O)c4ncccc24)C[C@@H](C)CN(Cc2cc(C(F)(F)F)cc(C(F)(F)F)c2)C3=O)cc1` [Reference Example 68, (9S)-7-[3,5-Bis(trifluoromethyl)benzyl]-6,7,8,9,10,12-hexahydro-9-methyl-5-(4-methylphenyl)-6,12-dioxo[1,4]diazepino[2,1-g][1,7]naphthyridine], for which the melting point is 179 to 180 °C. Moreover, the ED50 in data set [1] was 3.2 µg/kg.

Regarding `Cc1cnc2c(c1-c1ccccc1)C(=O)N(Cc1cc(C(F)(F)F)cc(C(F)(F)F)c1)C[C@H](C)CO2` [Reference Example 85, (S)-5-[3,5-Bis(trifluoromethyl)benzyl]-2,3,4,5-tetrahydro-3,8-dimethyl-6-oxo-7-phenyl-6H-pyrido[2,3-b][1,5]oxazocine], the melting point is 147 to 148 °C. Besides, at substance P receptor, the IC50 was 0.36 nM.

Compound `Cc1cc(-c2ccccc2)c2c([n+]1[O-])OCCN(Cc1cc(C(F)(F)F)cc(C(F)(F)F)c1)C2=O` [Reference Example 89, 4-[3,5-Bis(trifluoromethyl)benzyl]-2,3,4,5-tetrahydro-8-methyl-5-oxo-6-phenylpyrido[3,2-f][1,4]oxazepine 9-oxide] had a melting point of 181 to 183 °C. At substance P receptor, this compound came in with an IC50 of 0.44 nM.

On to `CC(=O)OCc1cc(-c2ccccc2)c2c(n1)OCCN(Cc1cc(C(F)(F)F)cc(C(F)(F)F)c1)C2=O` [Reference Example 91, 8-Acetoxymethyl-4-[3,5-bis(trifluoromethyl)benzyl]-2,3,4,5-tetrahydro-5-oxo-6-phenylpyrido[3,2-f][1,4]oxazepine], for which the melting point fell in the range of 122 to 124 °C. Further, the IC50 on substance P receptor stood at 0.28 nM.

In turn, `CC(=O)OCc1cc(-c2ccccc2)c2c(n1)OCCCN(Cc1cc(C(F)(F)F)cc(C(F)(F)F)c1)C2=O` [Reference Example 92, 9-Acetoxymethyl-5-[3,5-bis(trifluoromethyl)benzyl]-2,3,4,5-tetrahydro-6-oxo-7-phenyl-6H-pyrido[2,3-b][1,5]oxazocine] gave a melting point of 156 to 157 °C. Also, on substance P receptor, the IC50 came out at 0.74 nM.

For the compound `O=C1c2c(-c3ccccc3)cc(CCl)nc2OCCN1Cc1cc(C(F)(F)F)cc(C(F)(F)F)c1` [Reference Example 93, 4-[3,5-Bis(trifluoromethyl)benzyl]-8-chloromethyl-2,3,4,5-tetrahydro-5-oxo-6-phenylpyrido[3,2-f][1,4]oxazepine], the melting point lay within 183 to 184 °C. On substance P receptor, the IC50 turned out to be 0.42 nM.

The compound `COCc1cc(-c2ccccc2)c2c(n1)OCCN(Cc1cc(C(F)(F)F)cc(C(F)(F)F)c1)C2=O` [Reference Example 94, 4-[3,5-Bis(trifluoromethyl)benzyl]-2,3,4,5-tetrahydro-8-methoxymethyl-5-oxo-6-phenylpyrido[3,2-f][1,4]oxazepine] showed a melting point of 139 to 140 °C. On substance P receptor, this compound returned an IC50 of 0.17 nM.

Turning to `CN(C)Cc1cc(-c2ccccc2)c2c(n1)OCCN(Cc1cc(C(F)(F)F)cc(C(F)(F)F)c1)C2=O` [Reference Example 99, 4-[3,5-Bis(trifluoromethyl)benzyl]-8-dimethylaminomethyl-2,3,4,5-tetrahydro-5-oxo-6-phenylpyrido[3,2-f][1,4]oxazepine], the melting point lay in the range of 186 to 188 °C. At substance P receptor, this compound showed an IC50 of 0.12 nM.
